# Measured values published in patent US4892826A, “Process for the preparation of urokinase derivatives” (Abbott Laboratories, priority 1988, dated 1990).
# Assays:
# [1] = target: urokinase (Homo sapiens, UniProt P00749); assay: biochemical
# Description: The optimal concentration of arginine can be approximated by its apparent Ki value for inhibition of urokinase as calculated from a Dixon plot. Dixon, M, Biochem. J., 55, 170-171 (1953). […] It is preferred that the concentration of arginine chosen will maximally saturate the urokinase molecule and confer a protective effect against the previously discussed over reduction of the disulfide bridges.
# [2] = Urokinase amidolytic activity assay with chromogenic substrate S-2444; type: biochemical; conditions: isolated derivative
# Procedure: The reduction of the three disulfide bridges can be monitored, for example, by assays of the amidolytic activity of the urokinase, by titration of the available SH groups, or by reverse phase chromatography of the reduced urokinase. Preferably, the reduction is monitored by assaying the gain or loss of amidolytic activity of the urokinase.
# Approximately 1 to 2 mg/ml of the UK23 solution, in 0.1M phosphate (pH 7), was diluted with 1 volume of 0.5M arginine in water (pH 7). The reducing agent DTT, from a fresh stock solution of 1M in water, was added to adjust the final DTT concentration to 10 mM. […] The absorbance increase at 406 nm was monitored over a five minute period. One enzyme unit was defined as an increase in absorbance at 406 nm of 1 unit per minute.
molecule,measurement,setting,value
N=C(N)NCCC[C@H](N)C(=O)O [arginine],Ki,[1],70 mM
GPRP-Amino hexanoic acid-LKFQCGQK Urokinase Derivative [Example 1],"amidolytic activity, % of the initial UK23 value",[2]; repeated procedures,80% to 100
Heparin-LKFQCGQK Urokinase Derivative [Example 4],active (amidolytic activity of resulting derivative),[2],100%
